Test results from PMC4476799, “Englerin A Agonizes the TRPC4/C5 Cation Channels to Inhibit Tumor Cell Line Proliferation” (PLoS ONE, 2015).
Read-outs that look alike come from different tables or passages of the source.

Tested on: cancer cell lines from the cancer cell line encyclopedia (CCLE)
Experiment: Cell line profiling (CLiP) proliferation experiment
Assay type: cell-based
Parameters: key to Compound Activity (1-inactive;2-active): 1-inactive; 2-active; ACTIVITY_AREA: scale not given here; AMAX: unit not given here
Details: for IC50: read-out: Crossing Point; for EC50: read-out: Inflection Point
Protocol: Compound profiling experiment and data analysis was performed as previously described. Data was imported and plotted using the Tibco Spotfire DXP application. Lines were categorized as sensitive, intermediate and refractory as follows: Amax<-40 & Inflection Point <2 ~ Sensitive, Amax>-20 & Inflection Point >10 ~ Refractory, all else were called Intermediate. Cancer Cell line HG-U133 Plus 2 data was processed and normalized as described. […] Five sets of refractory cell lines were generated from the pool of refractory cell lines trying to match the lineage composition of the set of sensitive cell lines. The limma package was used as previously described to perform the statistical comparison.

[1] = UM-UC-3 cell line, urinary_tract, transitional_cell_carcinoma
[2] = VM-CUB1 cell line, urinary_tract, transitional_cell_carcinoma
[3] = VMRC-RCW cell line, kidney, renal_cell_carcinoma
[4] = VMRC-RCZ cell line, kidney, renal_cell_carcinoma
[5] = WSU-DLCL2 cell line, haematopoietic_and_lymphoid_tissue, diffuse_large_B_cell_lymphoma
[6] = YKG1 cell line, central_nervous_system, astrocytoma_Grade_IV
[7] = Z-138 cell line, haematopoietic_and_lymphoid_tissue, mantle_cell_lymphoma
[8] = ZR-75-1 cell line, breast, ductal_carcinoma
[9] = cell line 8-MG-BA, central_nervous_system, astrocytoma_Grade_IV
[10] = cell line 697, haematopoietic_and_lymphoid_tissue, acute_lymphoblastic_leukaemia
[11] = cell line 769-P, kidney, clear_cell_renal_cell_carcinoma
[12] = cell line 786-O, kidney, clear_cell_renal_cell_carcinoma
[13] = cell line 8305C, thyroid, anaplastic_carcinoma
[14] = cell line 23132/87, stomach, adenocarcinoma

## CC(C)[C@@]12C[C@@H](O)[C@@](C)(O1)[C@@H]1CC[C@@H](C)[C@H]1[C@@H]2OC(=O)/C=C/c1ccccc1 [Englerin B]
[1]
  ACTIVITY_AREA: 37.41
  AMAX: -54.71
  RESPONSE: INTERMEDIATE
[2]
  ACTIVITY_AREA: 96.55
  AMAX: -58.31
  RESPONSE: INTERMEDIATE
VMRC-RCW (kidney)
  IC50: > 30 µM
[3]
  ACTIVITY_AREA: 10.22
  AMAX: -25.65
  IC50: > 30 µM
VMRC-RCZ (kidney)
  IC50: > 30 µM
[4]
  ACTIVITY_AREA: 26.25
  AMAX: -46.92
  RESPONSE: INTERMEDIATE
  IC50: > 30 µM
WM983B, WM-983B (skin)
  IC50: > 30 µM
WM983B, WM-983B cell line, skin, NS
  IC50: > 30 µM
WM1799 cell line, skin, NS
  ACTIVITY_AREA: 44.8
  AMAX: -38.05
  RESPONSE: INTERMEDIATE
WM-88 (skin)
  IC50: > 30 µM
WM-88 cell line, skin, NS
  ACTIVITY_AREA: 55.16
  AMAX: -34.98
  RESPONSE: INTERMEDIATE
  IC50: > 30 µM
WM-115 cell line, skin, NS
  ACTIVITY_AREA: 73.29
  AMAX: -15.29
  RESPONSE: REFRACTORY
WM-266-4 cell line, skin, NS
  ACTIVITY_AREA: 31.57
  AMAX: -38.36
  RESPONSE: INTERMEDIATE
WM-793 cell line, skin, NS
  ACTIVITY_AREA: 26.94
  AMAX: -46.79
  RESPONSE: INTERMEDIATE
WM-983B cell line, skin, NS
  ACTIVITY_AREA: 63.66
  AMAX: -43.12
  RESPONSE: INTERMEDIATE
WM-1799, WM1799 (skin)
  IC50: > 30 µM
WM-1799, WM1799 cell line, skin, NS
  IC50: > 30 µM
WS1 (skin)
  IC50: > 30 µM
WS1, WS1 cell line, skin
  IC50: > 30 µM
WS1 cell line, skin
  ACTIVITY_AREA: 21.77
  AMAX: -26.6
  RESPONSE: INTERMEDIATE
[5]
  ACTIVITY_AREA: 47.3
  AMAX: -92.11
  RESPONSE: INTERMEDIATE
YAPC cell line, pancreas, NS
  ACTIVITY_AREA: 25.5
  AMAX: -44.67
  RESPONSE: INTERMEDIATE
[6]
  ACTIVITY_AREA: 26.45
  AMAX: -20.02
  RESPONSE: INTERMEDIATE
YMB-1 cell line, breast, NS
  ACTIVITY_AREA: 29.44
  AMAX: -63.02
  RESPONSE: INTERMEDIATE
  IC50: 21 µM
  EC50: 21 µM
[7]
  ACTIVITY_AREA: 90.79
  AMAX: -65.74
  RESPONSE: INTERMEDIATE
[8]
  ACTIVITY_AREA: 42.06
  AMAX: -53.16
Call per compound
  Compound Activity (1-inactive;2-active): 1
Call per compound, repeated on every line
  Compound Activity (1-inactive;2-active): 1
Call printed on every cell-line row
  Compound Activity (1-inactive;2-active): 1
[9]
  ACTIVITY_AREA: 36.6
  AMAX: -52.73
  RESPONSE: INTERMEDIATE
Cell line 59M, ovary, NS
  ACTIVITY_AREA: 26.55
  AMAX: -38.54
  RESPONSE: INTERMEDIATE
  IC50: > 30 µM
Cell line 59M
  IC50: > 30 µM
[10]
  IC50: 18.6 µM
  EC50: 18.6 µM
[11]
  ACTIVITY_AREA: 13.6
  AMAX: -49.16
  RESPONSE: INTERMEDIATE
[12]
  ACTIVITY_AREA: 46.1
  AMAX: -38.05
  RESPONSE: INTERMEDIATE
Cell line 1321N1 (central_nervous_system, astrocytoma)
  Compound Activity (1-inactive;2-active): 1
[13]
  ACTIVITY_AREA: 19.13
  AMAX: -42.05
  RESPONSE: INTERMEDIATE
[14]
  ACTIVITY_AREA: 152.84
  AMAX: -72.44
  RESPONSE: INTERMEDIATE
  IC50: 15.3 µM
  EC50: 15.3 µM
Cell line A4/Fuk, haematopoietic_and_lymphoid_tissue, diffuse_large_B_cell_lymphoma
  IC50: 18.1 µM
